The results in this text go back to patent US4587248A, “4-alkyl-thiophenyl-ethanolamines, having an activity the cerebral circulation, the blood platelet-aggregation and the lipenia” (priority 1981, dated 1986).

Like-named read-outs stand apart in the source and are kept apart here.

Series [1] relates to depolarized aorta of rats. The experiment in a line: contraction-promoting effect of bivalent calcium ions on the depolarized aorta of rats (Godfraind and Kaba 1972).
Another series has as its system isolated rat aorta. Description: contractions of isolated rat aorta (Godfraind and Kaba 1969).
The subject of series [2] is isolated intestines of rats. Description: spasmolytic activity in vitro on isolated intestines of rats.
Series [3] relates to isolated intestines of Guinea pigs. The experiment in a line: spasmolytic activity in vitro on isolated intestines of Guinea pigs.
Series [4] relates to contractions caused by norepinephrine on the deferent duct. Description: contractions caused by norepinephrine on the deferent duct (Barnett et al).
For another series, the system named is mice. To be noted: for Slope (fiducial limits): LD50, mice; for LD50, fiducial limits / LD50, fiducial limits (micromol/kg equivalent): mice; for LD50, fiducial limits (micromol/kg equivalent): in brackets.
A short description of another series: in vivo. To be noted: mouse, ip.
The test system of another series is rats. To be noted: for LD50, fiducial limits / LD50, fiducial limits (micromol/kg equivalent): rats; for Slope (fiducial limits): LD50, rats; for LD50, fiducial limits (micromol/kg equivalent): in brackets.

As to `CC(C)Sc1ccc([C@@H](O)[C@@H](C)N2CCN(C(=O)C=Cc3ccccc3)CC2)cc1` (relative stereo) [1-(4-isopropylthiophenyl)-2-(4-cinnamoyl-piperazine-1-yl)-1-propanol], the “inhibition of the contraction-promoting effect of bivalent calcium ions on the depolarized aorta” value in series [1] is listed as “has been inhibited”. In the series on isolated rat aorta, the “inhibition of contractions of isolated rat aorta” value is “inhibit the contractions of isolated rat aorta”. The spasmolytic activity entry in series [2] and in series [3] was “considerable spasmolytic activity” throughout. Moreover, the “inhibition of contractions caused by norepinephrine on the deferent duct” value in series [4] is on record as “inhibit the contractions caused by norepinephrine”.

In the case of `CC(C)Sc1ccc([C@@H](O)[C@H](C)N2CCN(C(=O)C=Cc3ccccc3)CC2)cc1` (relative stereo) [1-(4-isopropylthiophenyl)-2-(4-cinnamoyl-piperazine-1-yl)-1-propanol], the “inhibition of the contraction-promoting effect of bivalent calcium ions on the depolarized aorta” value in series [1] is “has been inhibited”. Moreover, the “inhibition of contractions of isolated rat aorta” value in the series on isolated rat aorta is recorded as “inhibit the contractions of isolated rat aorta”. Also, the spasmolytic activity entry in series [2] and in series [3] was “considerable spasmolytic activity” in each case. Also, the “inhibition of contractions caused by norepinephrine on the deferent duct” value in series [4] was “inhibit the contractions caused by norepinephrine”. Besides, the “Slope (fiducial limits)” value with mice (intraperitoneally) is 1.36 (1.14-1.47); in the series with mice (orally) it was 1.25 (1.10-1.42). In addition, the “LD50, fiducial limits” value is 782-1082 mg/kg b.w in the series with mice (intraperitoneally (TABLE 2)) and 3166-4208 mg/kg b.w in the series with mice (orally (TABLE 2)). Also, the “LD50, fiducial limits (micromol/kg equivalent)” value in the series with mice (intraperitoneally (TABLE 2)) was 1842 to 2548 µmol/kg; in the series with mice (orally (TABLE 2)), 6867 to 9127 µmol/kg.

`CC(C)Sc1ccc([C@@H](O)[C@H](C)N2CCN(C(=O)C=Cc3ccccc3)CC2)cc1` (relative stereo) [Compound 1] yielded an LD50 in the series “in vivo” of 920 mg/kg.

Consider `CC(C)Sc1ccc([C@@H](O)[C@@H](C)N2CCN(C(=O)C=Cc3ccccc3)CC2)cc1` (relative stereo) [Compound 2], for which the LD50 in the series “in vivo” was > 4000 mg/kg.

On to `COc1cc(C=CC(=O)N2CCN(C(C)C(O)c3ccc(SC(C)C)cc3)CC2)cc(OC)c1OC` (centres unmarked) [Compound 3], for which the LD50 in “in vivo” was > 400 mg/kg.

In turn, `CC(C)Sc1ccc(C(O)C(C)N2CCN(CC=Cc3ccccc3)CC2)cc1` (centres unmarked) [Compound 4] yielded an LD50 in “in vivo” of 300 mg/kg.

Consider `COc1cc(C=CCN2CCN(C(C)C(O)c3ccc(SC(C)C)cc3)CC2)cc(OC)c1OC` (centres unmarked) [Compound 5], for which the LD50 in the series “in vivo” turned out to be 75 mg/kg.

In “in vivo”, `CC(C)Sc1ccc(C(O)C(C)Nc2ccccc2)cc1` (centres unmarked) [Compound 6] had an LD50 of 400 mg/kg.

Take `CC(C)Sc1ccc(C(O)C(C)Nc2ccccc2C2CCCCC2)cc1` (centres unmarked) [Compound 7]: the LD50 in “in vivo” is > 400 mg/kg.

In the series “in vivo”, `CC(C)Sc1ccc(C(O)C(C)Nc2cccc(C3CCCCC3)c2)cc1` (centres unmarked) [Compound 8] yielded an LD50 of 500 mg/kg.

Regarding `CC(C)Sc1ccc(C(O)C(C)Nc2ccc(C3CCCCC3)cc2)cc1` (centres unmarked) [Compound 9], the LD50 in the series “in vivo” was > 400 mg/kg.

For `CC(C)Sc1ccc(C(O)C(C)NC2CCCCC2c2ccccc2)cc1` (centres unmarked) [Compound 11], the median lethal dose (LD50) in “in vivo” is > 400 mg/kg.

For `CC(C)Sc1ccc(C(O)C(C)NC2CCC(c3ccccc3)CC2)cc1` (centres unmarked) [Compound 13], the LD50 in “in vivo” turned out to be 150 mg/kg.

With `Fc1ccc(C(c2ccc(F)cc2)N2CCN(C/C=C/c3ccccc3)CC2)cc1` [Flunarizine], the “LD50, fiducial limits” value is given as 332-543 mg/kg b.w in the series on rats (intraperitoneally (TABLE 2)), 1714-2773 mg/kg b.w in the series with rats (orally (TABLE 2)), 325-386 mg/kg b.w with mice (intraperitoneally (TABLE 2)) and 498-687 mg/kg b.w in the series on mice (orally (TABLE 2)).

For `CCCCCCCCNC(C)C(O)c1ccc(SC(C)C)cc1` (centres unmarked) [Suloctidil], the “Slope (fiducial limits)” value is given as 1.86 (1.42-2.44) in the series on rats (intraperitoneally), 1.18 (1.13-1.22) in the series with rats (orally), 1.55 (1.33-1.82) in the series with mice (intraperitoneally) and 1.24 (1.18-1.30) in the series on mice (orally). The “LD50, fiducial limits” value with rats (intraperitoneally (TABLE 2)) is 32-69 mg/kg b.w; in the series on rats (orally (TABLE 2)), 1603-1976 mg/kg b.w; in the series with mice (intraperitoneally (TABLE 2)), 26.8-39.4 mg/kg b.w; with mice (orally (TABLE 2)) it was 2016-2511 mg/kg b.w. Also, the “LD50, fiducial limits (micromol/kg equivalent)” value with rats (intraperitoneally (TABLE 2)) lay within 94.8 to 204.4 µmol/kg; in the series on rats (orally (TABLE 2)) it was 4749 to 5854 µmol/kg; with mice (intraperitoneally (TABLE 2)), 70.4 to 116.7 µmol/kg; in the series on mice (orally (TABLE 2)) it was 5972 to 7439 µmol/kg. The compound further displayed an LD50 in the series “in vivo” of 32.5 mg/kg.

The term LD50 denotes the dose expected to kill half of the subjects tested. Low readings indicate a more toxic substance, high ones a less toxic substance.
